Measurements reported in patent publication US20240294498A1, “FACTOR XIIA INHIBITORS” (Lunac Therapeutics Ltd, priority 2021, published 2024).

Tests used:
Format in all cases: biochemical
FXIIa = target: T1, FXIIa (Homo sapiens, UniProt P00748); assay: Determination of Factor XIIa inhibition (chromogenic substrate S-2302); conditions: human FXIIa alpha, Ki category
T1 construct: FXIIa alpha
T1 sequence (P00748 373-615 limits assumed): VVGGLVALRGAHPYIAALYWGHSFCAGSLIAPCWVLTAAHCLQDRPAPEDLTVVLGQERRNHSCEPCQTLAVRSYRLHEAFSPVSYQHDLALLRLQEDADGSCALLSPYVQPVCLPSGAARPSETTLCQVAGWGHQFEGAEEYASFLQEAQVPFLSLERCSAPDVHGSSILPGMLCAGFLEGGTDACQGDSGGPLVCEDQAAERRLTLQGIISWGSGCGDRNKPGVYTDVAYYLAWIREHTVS
T1 sequence (P00748 20-372 partner limits assumed): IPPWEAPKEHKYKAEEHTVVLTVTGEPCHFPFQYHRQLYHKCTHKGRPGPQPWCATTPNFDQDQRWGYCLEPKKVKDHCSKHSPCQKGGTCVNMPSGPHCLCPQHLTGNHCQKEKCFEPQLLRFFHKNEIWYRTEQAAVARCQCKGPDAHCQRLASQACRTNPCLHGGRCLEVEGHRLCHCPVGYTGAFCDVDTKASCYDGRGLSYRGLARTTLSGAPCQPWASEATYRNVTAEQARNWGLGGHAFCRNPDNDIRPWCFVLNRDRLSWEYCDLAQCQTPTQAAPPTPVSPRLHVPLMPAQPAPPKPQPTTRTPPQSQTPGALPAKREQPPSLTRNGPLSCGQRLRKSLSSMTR
Protocol: (§1) The activities of the compounds of the invention have been determined in vitro using the following assays protocols for the screening of activity of FXIIa and other proteases. Each of these assays were performed in a purified system employing the use of chromogenic assays in microplate plate wells. Chromogenic peptide substrates mimicking natural protein substrates are attached via an amide bond to a chromogenic group. Paranitroaniline (pNA) is released from the peptide following catalyses by the proteolytic enzyme; the absorbance increases and can be monitored at 405 nm.
(§2) All compounds were dissolved in 100% (v/v) DMSO to a stock concentration of 10 mM, the highest concentration of compound used in each assay is 500 μM. The final concentrations of DMSO were 5% (v/v) in 50 mM Tris 137 mM NaCl pH 7.4. Where no test compound was added a final concentration of 5% DMSO was employed.
Factor XIIa activity was measured using a chromogenic substrate S-2302 (Chromogenix). Various concentrations of compound were incubated with 10 nM of FXIIa and incubated at 37° C. for 10 minutes in 50 mM Tris, 137 mM NaCl, pH 7.4, prior to the addition of the chromogenic substrate S-2302 at a concentration equal the to the experimentally derived KM. Kinetic readings at 405 nm were monitored every 12 secs for a total duration of 3 hours at 37° C. Gradients of initial rates were determined and employed to calculate IC50 values.
The activity of the compounds of the invention has been categorised based on the Ki values, the categories being “†”, “*”, “**” and “***”. […] The category “**” refers to compounds with a Ki value of 0.2 μM to 0.8 μM.
(§3) Ki═IC50/(1+[Substrate]/Km)
(§4) Where [Substrate] denotes the concentration of substrate used in the assay and Km is the determined value of each enzyme with its own substrate.

thrombin = target: T2, thrombin (Homo sapiens, UniProt P00734); assay: Determination of selectivity: thrombin inhibition (chromogenic substrate GPR); conditions: fold selectivity for FXIIa over thrombin (human); category
T2 construct: FXa (5 nM) and thrombin (5 nM)
Protocol: as §1, §2
(§5) To determine selectivity of test compounds, these test compounds were assayed for inhibitory activity against other serine proteases including FXa and thrombin. Essentially compounds at increasing concentrations were incubated with each enzyme: FXa (5 nM) and thrombin (5 nM), for 10 mins at 37° C. followed by the appropriate chromogenic substrate, S2765 (Chromogenix) and GPR (Bachem) respectively in 50 mM Tris, 137 mM NaCl, pH 7.4. Substrates were used at a concentration equal to the appropriate experimentally derived KM. Kinetic readings at 405 nm were monitored every 12 secs for a total duration of 3 hours at 37° C. Gradients of initial rates were determined and employed to calculate IC50 values. Values of IC50 were converted to Ki values based on the formula:
as §3, §4
The fold selectivity for FXIIa over thrombin for the compounds of the invention has been categorised based on the fold selectivity values, the categories being “+”, “++” and “+++”. The category “+” refers to fold selectivity values less than 10 (e.g. a fold selectivity value of less than 10 and greater than 1). The category “++” refers to a fold selectivity value of 10 to 100. The category “+++” refers to fold selectivity values greater than 100.

FXa = FXa (Homo sapiens, UniProt P00742); assay: Determination of selectivity: FXa inhibition (chromogenic substrate S2765); conditions: fold selectivity for FXIIa over FXa (human); category
FXa, sequence (P00742 235-488 limits assumed): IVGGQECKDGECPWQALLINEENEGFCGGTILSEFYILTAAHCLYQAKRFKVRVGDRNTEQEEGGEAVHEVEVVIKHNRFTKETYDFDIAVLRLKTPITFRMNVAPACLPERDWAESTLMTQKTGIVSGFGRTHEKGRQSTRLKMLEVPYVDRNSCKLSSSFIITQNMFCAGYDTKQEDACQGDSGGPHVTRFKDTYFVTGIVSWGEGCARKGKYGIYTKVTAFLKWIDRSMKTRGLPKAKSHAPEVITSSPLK
FXa, sequence (P00742 41-179 partner limits assumed): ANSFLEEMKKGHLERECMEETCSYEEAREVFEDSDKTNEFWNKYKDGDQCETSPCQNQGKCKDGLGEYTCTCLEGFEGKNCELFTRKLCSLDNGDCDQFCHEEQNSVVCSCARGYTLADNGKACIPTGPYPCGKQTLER
Protocol: as §1, §2, §5, §3, §4
The fold selectivity for FXIIa over FXa for the compounds of the invention has been categorised based on the fold selectivity values, the categories being “o”, “oo” and “ooo”. The category “o” refers to fold selectivity values less than 10 (e.g. a fold selectivity value of less than 10 and greater than 1). The category “oo” refers to a fold selectivity value of 10 to 100. The category “ooo” refers to fold selectivity values greater than 100.

Compound: Cc1ccc(C[C@@H]2C[C@@H](C(=O)NCc3ccc4c(cnn4C)c3)N(C(=O)[C@@H]3NCCC[C@@H]3C(=O)N3CCC(F)(F)C3)C2)cc1 [Example M05787, (2S,4R)-1-((2R,3S)-3-(3,3-difluoropyrrolidine-1-carbonyl)piperidine-2-carbonyl)-N-((1-methyl-1H-indazol-5-yl)methyl)-4-(4-methylbenzyl)pyrrolidine-2-carboxamide]
- Ki (FXIIa): 200 to 800 nM
- Thrombin (human)/FXIIa alpha (human) (thrombin): +++ (fold selectivity values greater than 100)
- FXa (human)/FXIIa alpha (human) (FXa): ∘∘∘

Compound: CN(C)CCN(C)C(=O)[C@H]1CCCN[C@H]1C(=O)N1C[C@H](Cc2ccc(C3CC3)cc2)C[C@H]1C(=O)NCc1ccc2c(cnn2C)c1 [Example M06060, (2R,3S)-2-((2S,4R)-4-(4-cyclopropylbenzyl)-2-(((1-methyl-1H-indazol-5-yl)methyl)carbamoyl)pyrrolidine-1-carbonyl)-N-(2-(dimethylamino)ethyl)-N-methylpiperidine-3-carboxamide]
- Ki (FXIIa): < 200 nM
- Thrombin (human)/FXIIa alpha (human) (thrombin): +++ (fold selectivity values greater than 100)
- FXa (human)/FXIIa alpha (human) (FXa): ∘∘∘

Compound: Cc1ccc(C[C@@H]2C[C@@H](C(=O)NCc3ccc4[nH]ncc4c3)N(C(=O)[C@@H]3NCCC[C@@H]3C(=O)N3CCCC3)C2)cc1 [Example M05748, (2S,4R)-N-((1H-indazol-5-yl)methyl)-4-(4-methylbenzyl)-1-((2R,3S)-3-(pyrrolidine-1-carbonyl)piperidine-2-carbonyl)pyrrolidine-2-carboxamide]
- Ki (FXIIa): 800 to 5000 nM
- Thrombin (human)/FXIIa alpha (human) (thrombin): ++ (a fold selectivity value of 10 to 100)
- FXa (human)/FXIIa alpha (human) (FXa): ∘∘∘

Compound: Cc1ccc(C[C@@H]2C[C@@H](C(=O)NCc3ccc4c(cnn4C)c3)N(C(=O)[C@@H]3NCCC[C@@H]3C(=O)N(C)CCCN(C)C)C2)cc1 [Example M06063, (2R,3S)-N-(3-(dimethylamino)propyl)-N-methyl-2-((2S,4R)-2-(((1-methyl-1H-indazol-5-yl)methyl)carbamoyl)-4-(4-methylbenzyl)pyrrolidine-1-carbonyl)piperidine-3-carboxamide]
- Ki (FXIIa): < 200 nM
- Thrombin (human)/FXIIa alpha (human) (thrombin): +++ (fold selectivity values greater than 100)
- FXa (human)/FXIIa alpha (human) (FXa): ∘∘∘

Compound: Cc1ccc(C[C@@H]2C[C@@H](C(=O)NCc3ccc4c(cnn4C)c3)N(C(=O)[C@@H]3NCCC[C@@H]3C(=O)N(C)C3CCN(C4CC4)CC3)C2)cc1 [Example M06112, (2R,3S)-N-(1-cyclopropylpiperidin-4-yl)-N-methyl-2-((2S,4R)-2-(((1-methyl-1H-indazol-5-yl)methyl)carbamoyl)-4-(4-methylbenzyl)pyrrolidine-1-carbonyl)piperidine-3-carboxamide]
- Ki (FXIIa): < 200 nM
- Thrombin (human)/FXIIa alpha (human) (thrombin): +++ (fold selectivity values greater than 100)
- FXa (human)/FXIIa alpha (human) (FXa): ∘∘∘

Compound: Cc1ccc(C[C@@H]2C[C@@H](C(=O)NCc3ccn4c(C(F)F)nnc4c3)N(C(=O)[C@@H]3NCCC[C@@H]3C(=O)N3CCCC3)C2)cc1 [Example M05985, (2S,4R)-N-[[3-(difluoromethyl)-[1,2,4]triazolo[4,3-a]pyridin-7-yl]methyl]-4-(p-tolylmethyl)-1-[(2R,3S)-3-(pyrrolidine-1-carbonyl)piperidine-2-carbonyl]pyrrolidine-2-carboxamide]
- Ki (FXIIa): 800 to 5000 nM

Compound: O=C(NCc1cc2cnccc2[nH]1)[C@@H]1C[C@H](C(F)(F)F)CN1C(=O)[C@@H]1NCCC[C@@H]1C(=O)N1CCCC1 [Example M05720, (2S,4S)-N-((1H-pyrrolo[3,2-c]pyridin-2-yl)methyl)-1-((2R,3S)-3-(pyrrolidine-1-carbonyl)piperidine-2-carbonyl)-4-(trifluoromethyl)pyrrolidine-2-carboxamide]
- Ki (FXIIa): < 200 nM
- Thrombin (human)/FXIIa alpha (human) (thrombin): +++ (fold selectivity values greater than 100)
- FXa (human)/FXIIa alpha (human) (FXa): ∘∘∘

Compound: Cn1ncc2cc(CNC(=O)[C@@H]3C[C@@H](Cc4cc(C5CC5)on4)CN3C(=O)[C@@H]3NCCC[C@@H]3C(=O)N3CCC[C@@H]3C(F)(F)F)ccc21 [Example M06047, (2S,4S)-4-+(5-cyclopropylisoxazol-3-yl)methyl+-N-+(1-methylindazol-5-yl)methyl+-1-+(2R,3S)-3-+(2R)-2-(trifluoromethyl)pyrrolidine-1-carbonyl+piperidine-2-carbonyl+pyrrolidine-2-carboxamide]
- Ki (FXIIa): < 200 nM
- Thrombin (human)/FXIIa alpha (human) (thrombin): +++ (fold selectivity values greater than 100)
- FXa (human)/FXIIa alpha (human) (FXa): ∘∘∘

Compound: Cc1ccc(C[C@@H]2C[C@@H](C(=O)NCC3Cc4ccncc4C3)N(C(=O)[C@@H]3NCCC[C@@H]3C(=O)N3CCCC3)C2)cc1 (stereo partly drawn) [Example M05764, (2S,4R)-N-((6,7-dihydro-5H-cyclopenta[c]pyridin-6-yl)methyl)-4-(4-methylbenzyl)-1-((2R,3S)-3-(pyrrolidine-1-carbonyl)piperidine-2-carbonyl)pyrrolidine-2-carboxamide]
- Ki (FXIIa): < 200 nM
- Thrombin (human)/FXIIa alpha (human) (thrombin): +++ (fold selectivity values greater than 100)
- FXa (human)/FXIIa alpha (human) (FXa): ∘∘∘

Compound: Cn1nnc2cc(CNC(=O)[C@@H]3C[C@@H](Cc4ccc(C5CC5)nc4)CN3C(=O)[C@@H]3NCCC[C@@H]3C(=O)N3CCC[C@@H]3C(F)(F)F)ccc21 [Example M06070, (2S,4R)-4-[(6-cyclopropyl-3-pyridyl)methyl]-N-[(1-methylbenzotriazol-5-yl)methyl]-1-[(2R,3S)-3-[(2R)-2-(trifluoromethyl)pyrrolidine-1-carbonyl]piperidine-2-carbonyl]pyrrolidine-2-carboxamide]
- Ki (FXIIa): 200 to 800 nM
- FXa (human)/FXIIa alpha (human) (FXa): ∘∘∘

Compound: Cn1nnc2cc(CNC(=O)[C@@H]3C[C@@H](Cc4ccc(C5(F)CC5)cc4)CN3C(=O)[C@@H]3NCCC[C@@H]3C(=O)N3CCCC3)ccc21 [Example M06068, (2S,4R)-4-[[4-(1-fluorocyclopropyl)phenyl]methyl]-N-[(1-methylbenzotriazol-5-yl)methyl]-1-[(2R,3S)-3-(pyrrolidine-1-carbonyl)piperidine-2-carbonyl]pyrrolidine-2-carboxamide]
- Ki (FXIIa): 800 to 5000 nM
- FXa (human)/FXIIa alpha (human) (FXa): ∘∘∘

Compound: Cc1ccc(C[C@@H]2C[C@@H](C(=O)NCCCc3cnn(C)c3)N(C(=O)[C@@H]3NCCC[C@@H]3C(=O)N3CCC[C@@H]3C(F)(F)F)C2)cc1 [Example M06077]
- Ki (FXIIa): 800 to 5000 nM

Compound: Cn1ncc2cc(CNC(=O)[C@@H]3C[C@@H](Cc4ccn(C5CC5)n4)CN3C(=O)[C@@H]3NCCC[C@@H]3C(=O)N3CCCC3)ccc21 [Example M05983, (2S,4S)-4-((1-cyclopropyl-1H-pyrazol-3-yl)methyl)-N-((1-methyl-1H-indazol-5-yl)methyl)-1-((2R,3S)-3-(pyrrolidine-1-carbonyl)piperidine-2-carbonyl)pyrrolidine-2-carboxamide]
- Ki (FXIIa): 800 to 5000 nM
- FXa (human)/FXIIa alpha (human) (FXa): ∘∘∘
